Results on 17 compounds are retold here after publication PMC8071248, “Characterization of Dog Glutathione Transferase P1-1, an Enzyme Relevant to Veterinary Medicine” (International Journal of Molecular Sciences, 2021).

The target in data set [1] is T1, dog GST P1-1 (Canis lupus familiaris, UniProt A0A8I3QRM6). Format: biochemical. Conditions: compound as substrate with GSH; 30 °C; substrate-specific concentrations and pH. As for the experimental part: The purified dog GST P1-1 enzyme was assayed spectrophotometrically with various substrates representing different types of chemical reactions, including substitution, reduction, addition, and isomerization.
T1 sequence (A0A8I3QRM6 1-210): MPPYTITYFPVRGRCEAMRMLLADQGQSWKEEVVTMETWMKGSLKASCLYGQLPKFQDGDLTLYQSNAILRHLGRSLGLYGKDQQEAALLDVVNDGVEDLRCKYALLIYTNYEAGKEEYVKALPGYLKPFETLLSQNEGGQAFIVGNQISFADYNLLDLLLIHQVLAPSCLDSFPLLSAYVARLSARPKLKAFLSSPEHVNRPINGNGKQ
Activity measurements with alternative substrates were performed spectrophotometrically on a Shimadzu (UV-250 1 PC) instrument. All measurements were conducted at 30 °C and in a 1 mL quartz cuvette, except for the alkenals, which were measured in a 0.5 mL quartz cuvette with a 5 mm light path. The conditions used with the final concentrations in the cuvette were as follows. CDNB: (Δε340 nm = 9600 cm^−1 M^−1), 1 mM GSH, 1 mM CDNB (dissolved in ethanol), measured at pH 6.5 in buffer A (0.1 M NaH2PO4/Na2HPO4 with 1 mM EDTA); CuOOH: (Δε340 nm = −6200 cm^−1 M^−1), 1 mM GSH, 1.5 mM CuOOH (dissolved in acetonitrile), 0.1 mM NADPH, 0.3 units glutathione reductase, measured at pH 7.0 in buffer A; Alkenals: (Δε225 nm = −19,200 cm^−1 M^−1), 0.5 mM GSH, 0.1 mM alkenals (dissolved in acetonitrile), measured at pH 6.5 in buffer A; EA: (Δε270 nm = 5000 cm^−1 M^−1), 0.25 mM GSH, 0.2 mM EA (dissolved in acetonitrile), measured at pH 6.5 in buffer A; AD: (Δε248 nm = 16,300 cm^−1 M^−1), 1 mM GSH, 0.1 mM AD (dissolved in methanol), measured at pH 8.0 in 0.025 M NaH2PO4/Na2HPO4 with 1 mM EDTA; PEITC: (Δε274 nm = 8890 cm^−1 M^−1), BITC: (Δε274 nm = 9250 cm^−1 M^−1), AITC: (Δε274 nm = 7450 cm^−1 M^−1), PITC: (Δε274 nm = 8350 cm^−1 M^−1), cHITC (Δε274 nm = 8520 cm^−1 M^−1), 1 mM GSH, 0.4 mM ITC (dissolved in acetonitrile), measured at pH 6.5 in buffer A.

Data set [2] has as its system Human GST P1-1/Ile105. Details: method as in PMID 9600848. The settings on record: compound as substrate; cited from earlier work.
In data set [3] the target is T1, dog GST P1-1. Description: biochemical. Format: biochemical. The settings on record: for IC50: 1 mM GSH and 0.4 mM benzyl isothiocyanate as substrates, standard assay conditions.
Data set [4] deals with T1, dog GST P1-1. Nature of the data set: Activation of the prodrug Telcyta by GST P1-1, TLC assay with ninhydrin staining. It is filed as biochemical. The settings on record: 3 mM Telcyta, 0.25 mg/mL enzyme, pH 7.5, 37 °C, nonenzymatic background subtracted. As for the experimental part: The prodrug Telcyta is a substrate for GSTs in a reaction releasing a multifunctional phosphorodiamidate mustard (Figure 5). The prodrug was most effectively activated by human GST P1-1 from the enzymes examined. Telcyta was tested with the dog GST P1-1 for comparison. We developed a chromatographic method to assay the reaction. Aliquots of the reaction mixture were analyzed by thin-layer chromatography (TLC), and the ninhydrin-reactive product as well as the substrate were quantified at different time points (Figure 6). Conditions were chosen to ascertain a linear response of ninhydrin staining with increasing analyte concentration. The enzymatic activity was obtained by subtracting the nonenzymatic background reaction.
Telcyta is a tripeptide derivative, which releases an alkylating agent by the action of GSTs and is converted to another tripeptide. Both substrate and product peptides are reactive with ninhydrin and the reaction can be monitored by sampling of the reaction mixture at consecutive time points. […] A background reaction was also measured in the absence of enzyme. […]
Six TLC plates (silica coated), one for each time point, were prepared and sampling occurred immediately after addition of Telcyta and every 3.5 min thereafter. The reaction was monitored over a total of 17.5 min. […]
Catalytic activity was estimated both by visual observation and by quantitative ImageJ analysis. […]

Data set [5] has as its target Cys48 (UniProt position 48, SLKASCLYGQL). The settings on record: cited from earlier work.

`O=[N+]([O-])c1ccc(Cl)c([N+](=O)[O-])c1` [1-Chloro-2,4-dinitrobenzene]: the “Specific Activity, Dog GST P1-1” value in data set [1] stood at 23.0 ± 1.3 µmol/min/mg. In addition, the “Specific Activity, Human GST P1-1/Ile105” value in data set [2] was 106 µmol/min/mg. In the case of `C=CCN=C=S` [Allyl isothiocyanate], the “Specific Activity, Dog GST P1-1” value in data set [1] was determined as 1.94 ± 0.60 µmol/min/mg. The “Specific Activity, Human GST P1-1/Ile105” value in data set [2] is given as 38 µmol/min/mg. For `S=C=NCc1ccccc1` [Benzyl isothiocyanate], in data set [1], the “Specific Activity, Dog GST P1-1” value worked out at 39.0 ± 5.2 µmol/min/mg. In addition, the “Specific Activity, Human GST P1-1/Ile105” value in data set [2] was 63 µmol/min/mg.

For orientation: IC50 means the concentration that inhibits the measured activity by half. With `Nc1c(S(=O)(=O)O)cc(Nc2ccc(Nc3nc(Cl)nc(Nc4ccccc4S(=O)(=O)O)n3)c(S(=O)(=O)O)c2)c2c1C(=O)c1ccccc1C2=O` [Cibacron Blue], in data set [3], half-maximal inhibition (IC50) was put at 43 ± 7 nM. Moreover, the “Shape of inhibition curve (cooperativity)” value in data set [3] (benzyl isothiocyanate as substrate) is listed as “positive cooperativity”. `CC(C)(OO)c1ccccc1` [Cumene hydroperoxide]: in data set [1], the “Specific Activity, Dog GST P1-1” value stood at 0.07 ± 0.01 µmol/min/mg. In addition, the “Specific Activity, Human GST P1-1/Ile105” value in data set [2] is on record as 0.03 µmol/min/mg. As to `S=C=NC1CCCCC1` [Cyclohexyl isothiocyanate], the “Specific Activity, Dog GST P1-1” value in data set [1] was determined as 1.27 ± 0.08 µmol/min/mg. In data set [2], the “Specific Activity, Human GST P1-1/Ile105” value is recorded as 11 µmol/min/mg. For `C=C(CC)C(=O)c1ccc(OCC(=O)O)c(Cl)c1Cl` [Ethacrynic acid], the “Specific Activity, Dog GST P1-1” value in data set [1] is reported as 2.05 ± 0.13 µmol/min/mg. `S=C=NCCc1ccccc1` [Phenethyl isothiocyanate]: in data set [1], the “Specific Activity, Dog GST P1-1” value was 6.37 ± 1.03 µmol/min/mg. Besides, the “Specific Activity, Human GST P1-1/Ile105” value in data set [2] is 60 µmol/min/mg.

In the case of `CCCN=C=S` [Propyl isothiocyanate], the “Specific Activity, Dog GST P1-1” value in data set [1] was found to be 2.55 ± 0.20 µmol/min/mg. In addition, the “Specific Activity, Human GST P1-1/Ile105” value in data set [2] is 49 µmol/min/mg. For `NC(CCC(=O)NC(CS(=O)(=O)CCOP(=O)(N(CCCl)CCCl)N(CCCl)CCCl)C(=O)NC(C(=O)O)c1ccccc1)C(=O)O` [Telcyta, γ-L-Glutamyl-α-amino-β-(2-ethyl-N,N,N′,N′-tetrakis(2-chloroethyl)phosphorodiamidate)sulfonylpropionyl-R(−)phenylglycine], the “Fold lower activity per mg of protein of dog GST P1-1 than the human enzyme” value in data set [4] worked out at 18 fold.

Turning to `[Cl][Sn]([c]1ccccc1)([c]1ccccc1)[c]1ccccc1` [Triphenyltin chloride], it took 3110 ± 380 nM to reach half-maximal inhibition in data set [3] (IC50). Turning to `CCCCCCC/C=C/C=O` [trans-2-Decenal], the “Specific Activity, Dog GST P1-1” value in data set [1] is 0.111 ± 0.005 µmol/min/mg. The same measure, in the same setting: under `CCCCCCCCC/C=C/C=O` [trans-2-Dodecenal] stands 0.046 ± 0.006 µmol/min/mg; under `CCCCCC/C=C/C=O` [trans-2-Nonenal], 0.124 ± 0.005 µmol/min/mg; under `CC/C=C/C=O` [trans-2-Pentenal], 0.100 ± 0.002 µmol/min/mg. As for `C[C@]12CCC(=O)CC1=CC[C@@H]1[C@@H]2CC[C@]2(C)C(=O)CC[C@@H]12` [Δ^5-androstene-3,17-dione], in data set [1], the “Specific Activity, Dog GST P1-1” value was 0.014 ± 0.005 µmol/min/mg. The “Specific Activity, Human GST P1-1/Ile105” value in data set [2] is given as 0.01 µmol/min/mg.

Broadly, the pKa is the pH at which an ionisable group is half protonated. Take “Glutathione transferase P1-1 (GST P1-1, class Pi) (Homo sapiens)”: the pKa in data set [5] is recorded as 4.2.
